Data on 8 compounds can be found in patent US10301288B2, “Kinase inhibitors” (Topivert Pharma Limited, priority 2013, dated 2019).

What is called IC50 is the concentration needed to halve the response being measured.

One assay deals with PBMCs. The experiment in a line: (b) LPS-induced TNFα/IL-8 release in PBMC cells. The note with it: Homo sapiens, read-out: IC50 for Inhibition of Cytokine Release, IL-8. Format: cell-based. The protocol: Peripheral blood mononuclear cells (PBMCs) from healthy subjects are separated from whole blood using a density gradient (Lymphoprep, Axis-Shield Healthcare). The PBMCs are seeded in 96 well plates and treated with compounds at the desired concentration for 2 hours before addition of 1 ng/ml LPS (Escherichia Coli 0111:B4 from Sigma Aldrich) for 24 hours under normal tissue culture conditions (37° C., 5% CO2). The supernatant is harvested for determination of IL-8 and TNFα concentrations by sandwich ELISA (Duo-set, R&D systems) and read on the fluorescence microplate reader (Varioskan® Flash, ThermoFisher Scientific).

Another assay relates to HT29 cells. The experiment in a line: (d) IL-1β-induced IL-8 release in HT29 cells. The assay is classed as cell-based. The conditions noted are these: Homo sapiens, HT-29, read-out: IC50 for Inhibition of Cytokine Release, IL-8. The protocol: HT29 cells, a human colon adenocarcinoma cell line, are plated in a 96 well plate (24 hrs) and pre-treated with compounds at the desired concentration for 2 hours before addition of 5 ng/ml of IL-1β (Abeam) for 24 hours. Supernatants are harvested for IL-8 quantification by Sandwich ELISA (Duo-set, R&D System). The IC50 is determined from the dose response curve.

For another assay, the target named is c-Src (Homo sapiens (Human), UniProt P12931). The experiment in a line: c-Src enzyme inhibition (FRET). The assay is classed as biochemical. The protocol: (§1) The enzyme inhibitory activities of compounds disclosed herein are determined by FRET using synthetic peptides labelled with both donor and acceptor fluorophores (Z-LYTE, Invitrogen Ltd., Paisley, UK).
(§2) The inhibitory activities of compounds of the invention against c-Src and Syk enzymes (Invitrogen), are evaluated in a similar fashion to that described hereinabove. The relevant enzyme (3000 ng/mL or 2000 ng/mL respectively, 2.5 μL) is incubated with the test compound (either 4 μg/mL, 0.4 μg/mL, 0.04 μg/mL, or 0.004 μg/mL, 2.5 μL each) for 2 hr at RT. The FRET peptides (8 μM. 2.5 μL), and appropriate ATP solutions (2.5 μL, 800 μM for c-Src, and 60 μM ATP for Syk) are then added to the enzymes/compound mixtures and incubated for 1 hr. Development reagent (protease, 5 μL) is added for 1 hr prior to detection in a fluorescence microplate reader (Varioskan® Flash, ThermoFisher Scientific).
(§3) In all cases, the site-specific protease cleaves non-phosphorylated peptide only and eliminates the FRET signal. Phosphorylation levels of each reaction are calculated using the ratio of coumarin emission (donor) over fluorescein emission (acceptor), for which high ratios indicate high phosphorylation and low ratios indicate low phosphorylation levels.

A further assay addresses Syk (Homo sapiens (Human), UniProt P43405). The experiment in a line: Syk enzyme inhibition (FRET). The assay is classed as biochemical. The protocol:
as §1, §2, §3

The target in the next assay is p38 MAPKα (Homo sapiens (Human), UniProt Q16539). As to the kind of experiment: p38 MAPKα enzyme inhibition (FRET, Method 2). The assay is classed as biochemical. The protocol:
as §1
The inhibitory activities of test compounds against the p38 MAPKα isoform (MAPK14: Invitrogen), are evaluated indirectly by determining the level of activation/phosphorylation of the down-stream molecule, MAPKAP-K2. The p38 MAPKα protein (80 ng/mL, 2.5 μL) is mixed with the test compound (2.5 μL of either 4 μg/mL, 0.4 μg/mL, 0.04 μg/mL or 0.004 μg/mL) for 2 hr at RT. […] The mixture is incubated for 1 hr at RT. Development reagent (protease, 5 μL) is added for 1 hr prior to detection in a fluorescence microplate reader (Varioskan® Flash, ThermoFisher Scientific).
as §3

For another assay, the target named is GSK3α (Homo sapiens (Human), UniProt P49840). As to the kind of experiment: GSK 3α enzyme inhibition (FRET, Method 2). The assay is classed as biochemical. Here is the method:
as §1
The inhibitory activities of compounds of the invention against the GSK 3α enzyme isoform (Invitrogen), are evaluated by determining the level of activation/phosphorylation of the target peptide. The GSK3-α protein (500 ng/mL, 2.5 μL) is mixed with the test compound (2.5 μL at either 4 μg/mL, 0.4 μg/mL, 0.04 μg/mL, or 0.004 μg/mL) for 2 hr at RT. The FRET peptide (8 μM, 2.5 μL), which is a phosphorylation target for GSK3α, and ATP (40 μM, 2.5 μL) are then added to the enzyme/compound mixture and the resulting mixture incubated for 1 hr. Development reagent (protease, 5 μL) is added for 1 hr prior to detection in a fluorescence microplate reader (Varioskan® Flash, ThermoFisher Scientific).
as §3

Another assay has as its system kinases. As to the kind of experiment: KinomeScan selectivity scores / number of hits. Format: binding. The protocol: These assays may be conducted by DiscoverX (formerly Ambit; San Diego, Calif.). The percentage inhibition produced by incubation with a test compound may be calculated relative to the non-inhibited control.
A further assay deals with β-catenin. The experiment in a line: (m) Accumulation of β catenin in d-U937 cells. The note with it: Reference Compound at 1 μg/mL defined as 100%. Format: cell-based, human. The protocol: U937 cells, a human monocytic cell line, are differentiated into macrophage-type cells by incubation with PMA; (100 ng/mL) for between 48 to 72 hr. The cells are then incubated with either final concentrations of test compound or vehicle for 18 hr. The induction of β-catenin by the test compounds is stopped by replacing the media with 4% formaldehyde solution. Endogenous peroxide activity is neutralised by incubating with quenching buffer (100 μL, 0.1% sodium azide, 1% H2O2 in PBS with 0.05% Tween-20) for 20 min. The cells are washed with washing buffer (200 μL; PBS containing 0.05% Tween-20) and incubated with blocking solution (200 μL; 5% milk in PBS) for 1 hr, re-washed with washing buffer (200 μL) and then incubated overnight with anti-β-catenin antibody solution (50 μL) in 1% BSA/PBS (BD, Oxford, UK).
After washing with washing buffer (3×200 μL; PBS containing 0.05% Tween-20), cells are incubated with an HRP-conjugated secondary antibody solution (100 μL) in 1% BSA/PBS (Dako, Cambridge, UK) and the resultant signal is determined colourimetrically (OD: 450 nm with a reference wavelength of 655 nm) using TMB substrate (50 μL; R&D Systems, Abingdon, UK). This reaction is stopped by addition of 1N H2SO4 solution (50 μL). Cells are then washed with washing buffer and 2% crystal violet solution (50 μL) is applied for 30 min. After washing with washing buffer (3×200 μL), 1% SDS (100 μL) is added to each well and the plates are shaken lightly for 1 hr prior to measuring the absorbance at 595 nm (Varioskan® Flash, Thermo-Fisher Scientific).
The measured OD450-655 readings are corrected for cell number by dividing the OD450-655 by the OD595 readings.

A value given as a limit tells only on which side of the number the result lay.

Sequence of p38 MAPKα (Q16539 whole entry): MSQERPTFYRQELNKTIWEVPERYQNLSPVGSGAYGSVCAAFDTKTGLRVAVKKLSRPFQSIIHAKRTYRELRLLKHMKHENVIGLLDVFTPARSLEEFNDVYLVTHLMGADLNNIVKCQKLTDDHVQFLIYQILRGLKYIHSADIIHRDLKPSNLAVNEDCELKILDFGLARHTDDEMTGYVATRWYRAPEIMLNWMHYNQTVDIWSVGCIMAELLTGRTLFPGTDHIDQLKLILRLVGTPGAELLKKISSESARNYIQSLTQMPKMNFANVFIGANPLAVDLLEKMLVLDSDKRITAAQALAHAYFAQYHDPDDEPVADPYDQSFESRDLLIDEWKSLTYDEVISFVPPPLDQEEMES
Sequence of GSK3α (P49840 whole entry): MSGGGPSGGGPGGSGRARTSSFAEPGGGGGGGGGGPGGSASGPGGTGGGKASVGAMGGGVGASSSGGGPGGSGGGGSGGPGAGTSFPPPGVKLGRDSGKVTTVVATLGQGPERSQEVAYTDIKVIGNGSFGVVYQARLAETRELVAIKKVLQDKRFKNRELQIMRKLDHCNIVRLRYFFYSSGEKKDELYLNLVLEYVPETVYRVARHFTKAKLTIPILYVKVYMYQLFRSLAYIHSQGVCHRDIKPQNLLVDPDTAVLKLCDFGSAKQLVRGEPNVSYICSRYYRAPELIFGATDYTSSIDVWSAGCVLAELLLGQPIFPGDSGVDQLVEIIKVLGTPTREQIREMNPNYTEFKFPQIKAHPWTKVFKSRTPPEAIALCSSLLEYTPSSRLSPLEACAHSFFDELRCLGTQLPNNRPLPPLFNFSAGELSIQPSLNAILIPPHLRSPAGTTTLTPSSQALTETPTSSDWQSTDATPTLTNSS
Sequence of c-Src (P12931 whole entry, looked up): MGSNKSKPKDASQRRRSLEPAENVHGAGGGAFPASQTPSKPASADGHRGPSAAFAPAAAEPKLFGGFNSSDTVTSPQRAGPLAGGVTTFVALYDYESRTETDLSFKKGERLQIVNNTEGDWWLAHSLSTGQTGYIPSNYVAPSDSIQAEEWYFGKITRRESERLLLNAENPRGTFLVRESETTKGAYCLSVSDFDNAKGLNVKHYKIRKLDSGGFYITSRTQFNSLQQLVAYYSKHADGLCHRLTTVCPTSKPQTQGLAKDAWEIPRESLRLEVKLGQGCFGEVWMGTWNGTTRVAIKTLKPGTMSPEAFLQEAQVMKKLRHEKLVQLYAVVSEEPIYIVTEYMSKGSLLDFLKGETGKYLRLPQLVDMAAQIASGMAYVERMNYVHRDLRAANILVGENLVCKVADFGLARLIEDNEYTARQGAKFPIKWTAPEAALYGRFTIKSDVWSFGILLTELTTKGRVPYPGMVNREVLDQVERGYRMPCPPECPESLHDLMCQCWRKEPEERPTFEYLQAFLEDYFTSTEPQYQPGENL

Take `C#Cc1cc(Nc2cc(Oc3ccc(NC(=O)Nc4cc(C(C)(C)C)nn4-c4ccc(N(C)C)cc4)c4ccccc34)ccn2)cc(C(=O)NCCOCCOCCOC)c1` [Example 11, 3-((4-((4-(3-(3-(tert-Butyl)-1-(4-(dimethylamino)phenyl)-1H-pyrazol-5-yl)ureido)-naphthalen-1-yl)oxy)pyridin-2-yl)amino)-5-ethynyl-N-(2-(2-(2-methoxyethoxy)ethoxy)-ethyl)benzamide]: the IC50 is 0.0043 µM with PBMCs; 0.0062 µM in the assay with HT29 cells; over 1.21 µM at c-Src; over 1.21 µM on Syk; 0.766 µM against p38 MAPKα; 12.1 µM at GSK3α.

For the compound `COCC(=O)Nc1cc(Oc2ccc(NC(=O)Nc3cc(C(C)(C)C)nn3-c3ccc(C)cc3)c3ccccc23)ccn1` [Reference Compound, N-(4-(4-(3-(3-tert-butyl-1-p-tolyl-1H-pyrazol-5-yl)ureido)naphthalen-1-yloxy)pyridin-2-yl)-2-methoxyacetamide, reference compound], in the assay on kinases (50 nM), the “KinomeScan S(1) number of hits” value was determined as 7, the “KinomeScan S(10) number of hits” value turned out to be 32 and the “KinomeScan S(35) number of hits” value came to 67. Besides, in the assay on kinases (500 nM), the “KinomeScan S(1) number of hits” value is 45, the “KinomeScan S(10) number of hits” value is 105 and the “KinomeScan S(35) number of hits” value is recorded as 143. Further, in the assay on β-catenin (1 μg/mL), the “% β-catenin induction” value was 100%.

As for `COCCOCCOCCNC(=O)c1cc(Nc2nccc(Oc3ccc(NC(=O)Nc4cc(C(C)(C)C)nn4-c4ccc(N(C)C)cc4)c4ccccc34)n2)cc(OC)c1` [Example 16, 3-((4-((4-(3-(3-(tert-Butyl)-1-(4-(dimethylamino)phenyl)-1H-pyrazol-5-yl)ureido)-naphthalen-1-yl)oxy)pyrimidin-2-yl)amino)-5-methoxy-N-(2-(2-(2-methoxyethoxy)-ethoxy)ethyl)benzamide], the IC50 with PBMCs amounted to 0.0027 µM; against c-Src it was 0.015 µM; against Syk, 0.027 µM; against GSK3α, 0.646 µM.

On to `C#Cc1cc(Nc2nccc(Oc3ccc(NC(=O)Nc4cc(C(C)(C)C)nn4-c4ccc(OC)cc4C)c4ccccc34)n2)cc(C(=O)NCCOCCOCCOC)c1` [Example 17, 3-((4-((4-(3-(3-(tert-Butyl)-1-(4-methoxy-2-methylphenyl)-1H-pyrazol-5-yl)ureido)-naphthalen-1-yl)oxy)pyrimidin-2-yl)amino)-5-ethynyl-N-(2-(2-(2-methoxyethoxy)-ethoxy)ethyl)benzamide], for which the concentration for half-maximal inhibition (IC50) with PBMCs stood at 0.005 µM; at GSK3α, 12.1 µM.

Consider `C#Cc1cc(Nc2nccc(Oc3ccc(NC(=O)Nc4cc(C(C)(C)C)nn4-c4cccc(CP(C)(C)=O)c4)c4ccccc34)n2)cc(C(=O)NCCOCCOCCOC)c1` [Example 14, 3-((4-((4-(3-(3-(tert-Butyl)-1-(3-((dimethylphosphoryl)methyl)phenyl)-1H-pyrazol-5-yl)-ureido)naphthalen-1-yl)oxy)pyrimidin-2-yl)amino)-5-ethynyl-N-(2-(2-(2-methoxyethoxy)-ethoxy)ethyl)benzamide], for which the IC50 in the assay with PBMCs was determined as 0.0015 µM; with HT29 cells, 0.0015 µM; at c-Src it was 0.004 µM; against Syk, 0.02 µM; on p38 MAPKα, 0.088 µM; on GSK3α, 0.402 µM.

For `C#Cc1cc(Nc2nccc(Oc3ccc(NC(=O)Nc4cc(C(C)(C)C)nn4-c4ccc(C)cc4)c4c3CCCC4)n2)cc(C(=O)NCCOCCOCCOC)c1` [Example 12, 3-((4-((4-(3-(3-(tert-Butyl)-1-(p-tolyl)-1H-pyrazol-5-yl)ureido)-5,6,7,8-tetrahydronaphthalen-1-yl)oxy)pyrimidin-2-yl)amino)-5-ethynyl-N-(2-(2-(2-methoxyethoxy)-ethoxy)ethyl)benzamide], the IC50 with PBMCs came to 0.0118 µM; with HT29 cells it was 0.0109 µM; at GSK3α it was 12.5 µM.

As to `COCCOCCOCCNC(=O)c1cc(Nc2cc(Oc3ccc(NC(=O)Nc4cc(C(C)(C)C)nn4-c4cccc(CP(C)(C)=O)c4)c4ccccc34)ccn2)cc(OC)c1` [Example 15, 3-((4-((4-(3-(3-(tert-Butyl)-1-(3-((dimethylphosphoryl)methyl)phenyl)-1H-pyrazol-5-yl)-ureido)naphthalen-1-yl)oxy)pyridin-2-yl)amino)-5-methoxy-N-(2-(2-(2-methoxyethoxy)-ethoxy)ethyl)benzamide], the 50% inhibitory concentration (IC50) was determined as 0.0012 µM with PBMCs; 0.002 µM in the assay with HT29 cells; 0.018 µM against c-Src; 0.057 µM on Syk; 0.034 µM against p38 MAPKα; 3.2 µM at GSK3α. Further, the figures for the “% β-catenin induction” value in the assay with β-catenin (1 μg/mL), with β-catenin (5 μg/mL) and in the assay on β-catenin (10 μg/mL) were 4%, 11% and 27%, respectively.

For `C#Cc1cc(Nc2nccc(Oc3ccc(NC(=O)Nc4cc(C(C)(C)C)nn4-c4ccc(OC)cc4OC)c4ccccc34)n2)cc(C(=O)NCCOCCOCCOC)c1` [Example 13, 3-((4-((4-(3-(3-(tert-Butyl)-1-(2,4-dimethoxyphenyl)-1H-pyrazol-5-yl)ureido)naphthalen-1-yl)oxy)pyrimidin-2-yl)amino)-5-ethynyl-N-(2-(2-(2-methoxyethoxy)ethoxy)ethyl)-benzamide], the IC50 in the assay on PBMCs is 0.0046 µM; in the assay with HT29 cells, 0.0036 µM; at c-Src, 0.021 µM; against Syk, 0.123 µM; on p38 MAPKα, 0.37 µM; on GSK3α, 2.13 µM. Besides, the results for the “% β-catenin induction” value in the assay on β-catenin (1 μg/mL), in the assay with β-catenin (5 μg/mL) and in the assay on β-catenin (10 μg/mL) were −5%, −2% and −4%, respectively.
